{
  "source": "PubChem BioAssay (NCI)",
  "assay_in_all_cases": "NCI-60 cell line screen, 48 h",
  "key": {"[1]": {"test_system": "786-0 renal"}, "[2]": {"test_system": "A498 renal"}, "[3]": {"test_system": "A549 NSCLC"}, "[4]": {"test_system": "BT-549 breast"}, "[5]": {"test_system": "CAKI-1 renal"}, "[6]": {"test_system": "CCRF-CEM leukemia"}, "[7]": {"test_system": "COLO 205 colon"}, "[8]": {"test_system": "DU-145 prostate"}, "[9]": {"test_system": "EKVX NSCLC"}, "[10]": {"test_system": "HCC-2998 colon"}, "[11]": {"test_system": "HCT-116 colon"}, "[12]": {"test_system": "HCT-15 colon"}, "[13]": {"test_system": "HOP-62 NSCLC"}, "[14]": {"test_system": "HOP-92 NSCLC"}, "[15]": {"test_system": "HS 578T breast"}, "[16]": {"test_system": "HT29 colon"}, "[17]": {"test_system": "IGROV1 ovarian"}, "[18]": {"test_system": "K-562 leukemia"}, "[19]": {"test_system": "KM12 colon"}, "[20]": {"test_system": "LOX IMVI melanoma"}, "[21]": {"test_system": "M14 melanoma"}, "[22]": {"test_system": "MALME-3M melanoma"}, "[23]": {"test_system": "MCF7 breast"}, "[24]": {"test_system": "MDA-MB-231 breast"}, "[25]": {"test_system": "MDA-MB-435"}, "[26]": {"test_system": "MOLT-4 leukemia"}, "[27]": {"test_system": "NCI-H226 lung"}, "[28]": {"test_system": "NCI-H23 lung"}, "[29]": {"test_system": "NCI-H460 lung"}, "[30]": {"test_system": "NCI-H522 lung"}, "[31]": {"test_system": "NCI/ADR-RES ovarian"}, "[32]": {"test_system": "OVCAR-4 ovarian"}, "[33]": {"test_system": "OVCAR-5 ovarian"}, "[34]": {"test_system": "OVCAR-8 ovarian"}, "[35]": {"test_system": "PC-3 prostate"}, "[36]": {"test_system": "RPMI-8226 leukemia"}, "[37]": {"test_system": "RXF 393 renal"}, "[38]": {"test_system": "SF-268 CNS"}, "[39]": {"test_system": "SF-295 CNS"}, "[40]": {"test_system": "SF-539 CNS"}, "[41]": {"test_system": "SK-MEL-2 melanoma"}, "[42]": {"test_system": "SK-MEL-28 melanoma"}, "[43]": {"test_system": "SK-MEL-5 melanoma"}, "[44]": {"test_system": "SK-OV-3 ovarian"}, "[45]": {"test_system": "SN12C renal"}, "[46]": {"test_system": "SNB-19 CNS"}, "[47]": {"test_system": "SNB-75 CNS"}, "[48]": {"test_system": "SR leukemia"}, "[49]": {"test_system": "SW-620 colon"}, "[50]": {"test_system": "T-47D breast"}, "[51]": {"test_system": "TK-10 renal"}, "[52]": {"test_system": "U251 CNS"}, "[53]": {"test_system": "UACC-257 melanoma"}, "[54]": {"test_system": "UACC-62 melanoma"}, "[55]": {"test_system": "UO-31 renal"}},
  "note": "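1) Cells in 96-well plates. 2) Compound, 48 h, 5 concentrations. 3) Linear interpolation between surrounding doses. 4) Unreached endpoint = highest concentration. The concentration for full growth arrest is given as TGI.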",
  "data": [
    {"compound": "Cn1c2ccccc2c2c3c(c4c5ccccc5n(C)c4c21)C(=O)NC3=O", "values": [
      {"measurement": "TGI", "setting": "[1]", "value": 27.5, "unit": "µM"},
      {"measurement": "TGI", "setting": "[2]", "value": "> 44.2", "unit": "µM"},
      {"measurement": "TGI", "setting": "[3]", "value": "> 85.3", "unit": "µM"},
      {"measurement": "TGI", "setting": "[4]", "value": "> 100", "unit": "µM"},
      {"measurement": "TGI", "setting": "[5]", "value": "> 100", "unit": "µM"},
      {"measurement": "TGI", "setting": "[6]", "value": "> 100", "unit": "µM"},
      {"measurement": "TGI", "setting": "[7]", "value": "> 100", "unit": "µM"},
      {"measurement": "TGI", "setting": "[8]", "value": "> 100", "unit": "µM"},
      {"measurement": "TGI", "setting": "[9]", "value": "> 100", "unit": "µM"},
      {"measurement": "TGI", "setting": "[10]", "value": "> 100", "unit": "µM"},
      {"measurement": "TGI", "setting": "[11]", "value": "> 100", "unit": "µM"},
      {"measurement": "TGI", "setting": "[12]", "value": "> 100", "unit": "µM"},
      {"measurement": "TGI", "setting": "[13]", "value": "> 55.8", "unit": "µM"},
      {"measurement": "TGI", "setting": "[14]", "value": "> 100", "unit": "µM"},
      {"measurement": "TGI", "setting": "[15]", "value": "> 72.6", "unit": "µM"},
      {"measurement": "TGI", "setting": "[16]", "value": "> 100", "unit": "µM"},
      {"measurement": "TGI", "setting": "[17]", "value": "> 71.8", "unit": "µM"},
      {"measurement": "TGI", "setting": "[18]", "value": "> 100", "unit": "µM"},
      {"measurement": "TGI", "setting": "[19]", "value": "> 100", "unit": "µM"},
      {"measurement": "TGI", "setting": "[20]", "value": "> 100", "unit": "µM"},
      {"measurement": "TGI", "setting": "[21]", "value": "> 100", "unit": "µM"},
      {"measurement": "TGI", "setting": "[22]", "value": "> 100", "unit": "µM"},
      {"measurement": "TGI", "setting": "[23]", "value": "> 100", "unit": "µM"},
      {"measurement": "TGI", "setting": "[24]", "value": "> 52.7", "unit": "µM"},
      {"measurement": "TGI", "setting": "[25]", "value": "> 100", "unit": "µM"},
      {"measurement": "TGI", "setting": "[26]", "value": "> 100", "unit": "µM"},
      {"measurement": "TGI", "setting": "[27]", "value": "> 100", "unit": "µM"},
      {"measurement": "TGI", "setting": "[28]", "value": "> 100", "unit": "µM"},
      {"measurement": "TGI", "setting": "[29]", "value": 70.1, "unit": "µM"},
      {"measurement": "TGI", "setting": "[30]", "value": "> 86.7", "unit": "µM"},
      {"measurement": "TGI", "setting": "[31]", "value": "> 100", "unit": "µM"},
      {"measurement": "TGI", "setting": "[32]", "value": 28.6, "unit": "µM"},
      {"measurement": "TGI", "setting": "[33]", "value": "> 100", "unit": "µM"},
      {"measurement": "TGI", "setting": "[34]", "value": "> 100", "unit": "µM"},
      {"measurement": "TGI", "setting": "[35]", "value": "> 77.5", "unit": "µM"},
      {"measurement": "TGI", "setting": "[36]", "value": "> 100", "unit": "µM"},
      {"measurement": "TGI", "setting": "[37]", "value": "> 22.1", "unit": "µM"},
      {"measurement": "TGI", "setting": "[38]", "value": "> 100", "unit": "µM"},
      {"measurement": "TGI", "setting": "[39]", "value": "> 76.5", "unit": "µM"},
      {"measurement": "TGI", "setting": "[40]", "value": 35.4, "unit": "µM"},
      {"measurement": "TGI", "setting": "[41]", "value": "> 58.3", "unit": "µM"},
      {"measurement": "TGI", "setting": "[42]", "value": "> 100", "unit": "µM"},
      {"measurement": "TGI", "setting": "[43]", "value": "> 100", "unit": "µM"},
      {"measurement": "TGI", "setting": "[44]", "value": "> 100", "unit": "µM"},
      {"measurement": "TGI", "setting": "[45]", "value": "> 100", "unit": "µM"},
      {"measurement": "TGI", "setting": "[46]", "value": 49.6, "unit": "µM"},
      {"measurement": "TGI", "setting": "[47]", "value": "> 95.7", "unit": "µM"},
      {"measurement": "TGI", "setting": "[48]", "value": "> 100", "unit": "µM"},
      {"measurement": "TGI", "setting": "[49]", "value": "> 100", "unit": "µM"},
      {"measurement": "TGI", "setting": "[50]", "value": "> 100", "unit": "µM"},
      {"measurement": "TGI", "setting": "[51]", "value": "> 100", "unit": "µM"},
      {"measurement": "TGI", "setting": "[52]", "value": "> 51.5", "unit": "µM"},
      {"measurement": "TGI", "setting": "[53]", "value": "> 100", "unit": "µM"},
      {"measurement": "TGI", "setting": "[54]", "value": "> 89.6", "unit": "µM"},
      {"measurement": "TGI", "setting": "[55]", "value": "> 100", "unit": "µM"}
    ]}
  ]
}
